Measured values published in patent US20130316958A1 (University of Southern California, priority 2010, published 2013).

Legend:
[1] = test system: HCT116, HaCat, and MEF cells; assay: GFP-LC3 autophagy with KSHV vFLIP in multiple cell types; assay type: cell-based; conditions: 2 μM rapamycin 3 hr
Experimental: During autophagy, an LC3 precursor (LC3-I) undergoes cleavage and lipidation to yield its processed form (LC3-II) (Mizushima et al. (2008) Nature 451:1069-1075). Immunoblotting was performed with an antibody against LC3 to further measure autophagic activity. NIH3T3-Vector, NIH3T3-KSHV-vFLIP, and NIH3T3-MCV-159L cells were treated with Hank's solution for 4 hr. Polypeptides were resolved by SDS-polyacrylamide gel electrophoresis (PAGE) and transferred to a PVDF membrane (Bio-Rad). […] The proteins were visualized by a chemiluminescence reagent (Pierce) and detected by a Fuji Phosphor Imager. A large portion of LC3-I was processed to LC3-II in NIH3T3-vector cells under starvation conditions, while little or no processed LC3-II was detected in NIH3T3-KSHV-vFLIP, NIH3T3-MCV-159L, NIH3T3-HVS-vFLIP, and NIH3T3-cFLIPs cells. Finally, the ability of FLIP to block autophagy in multiple cell types was evaluated. At 12-16 hr post-transfection with GFP-LC3, HCT116, HaCat, and MEF cells containing vector or KSHV vFLIP were treated with 2 μM rapamycin for 3 hr. Subsequently, GFP-LC3 was detected using an inverted fluorescence microscope and the autophagy levels quantified as means (±SD) of the results from three independent experiments.

[2] = test system: human Atg3 deletion mutants; assay: GST pulldown with Atg3 deletion mutants; assay type: binding; conditions: GST-Atg3, N-terminal and C-terminal regions
Text: The overall structure of yeast Atg3 has a unique hammer-like shape with the N-terminal and C-terminal regions discretely responsible for Atg7 and Atg8 (equivalent to mammalian LC3) binding, respectively. (Yamada et al. (2007) J. Biol. Chem. 282:8036-8043). Based on the structure of yeast Atg3, human Atg3 deletion mutants fused with a GST mammalian expression vector were constructed: GST-Atg31-93, GST-Atg3193-268, GST-Atg3268-315, and GST-Atg3193-315-GST-tagged hATG3 and hATG3 mutant genes were cloned into a pcDNA5/FRT/TO derivative encoding an N-terminal GST epitope tag between the BamHI and NotI sites. GST pulldown with Flag-KSHV vFLIP, Flag-cFLIPs, Flag-MCV 159L, or Flag-HVS vFLIP along with GST-Atg3, GST-Atg3 N-terminal region (Nt), or GST-Atg3 C-terminal region (Ct) was performed as described above and was followed by immunoblotting with aFlag or aGST.

Atg3 = biological target: T1, Atg3 (Homo sapiens, UniProt Q9NT62); assay: Co-immunoprecipitation of FLIP with Atg3 in HEK293T cells; assay type: binding; conditions: endogenously and exogenously expressed Atg3
T1 construct: GFP (alternative construct GFP-Atg3, not on the same molecule as GST); expressed in transfected cells; host or cells: HEK293T
T1 sequence (Q9NT62 whole entry): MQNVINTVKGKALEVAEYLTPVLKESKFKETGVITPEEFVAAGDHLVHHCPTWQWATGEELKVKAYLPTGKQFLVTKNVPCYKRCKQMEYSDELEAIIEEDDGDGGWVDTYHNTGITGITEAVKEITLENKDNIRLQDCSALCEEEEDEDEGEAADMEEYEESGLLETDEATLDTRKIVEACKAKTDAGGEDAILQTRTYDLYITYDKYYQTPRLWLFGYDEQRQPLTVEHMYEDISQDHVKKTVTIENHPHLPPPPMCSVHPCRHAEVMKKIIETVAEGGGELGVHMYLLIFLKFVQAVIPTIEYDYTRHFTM
Experimental: The ability of FLIP to bind to Atg3 was evaluated by co-immunoprecipitation assay. HEK293T cells were transfected with Flag-vFLIP and/or GFP-Atg3 or Flag-vFLIP and/or GST-Atg3, and at 48 hr post-transfection, cells were harvested and lysed in an NP40 buffer supplemented with complete protease inhibitor cocktail (Roche). After pre-clearing with protein A/G agarose beads for 1 hr at 4° C., whole-cell lysates were used for immunoprecipitation with αFlag, αGFP, or GST. Generally, 1-4 μg of the antibody was added to 1 ml of the cell lysate and incubated at 4° C. for 8 to 12 hr. The immunoprecipitates were then washed extensively with a lysis buffer and eluted by boiling them with an SDS loading buffer for 5 min. Following immunoprecipitation, samples were treated to immunoblot using αAtg3 (1:500) (Novus).

With “KSHV vFLIP: viral FLICE-like inhibitor protein of Kaposi's sarcoma-associated herpesvirus, expressed in cells” the “block of autophagy in multiple cell types” value [1] was “efficiently blocked autophagy in a number of cell types”, the “Atg3 region bound (GST pulldown)” value [2] was “independently bound either the aa193-268 or aa268-315 region of the C-terminal of Atg3” and the “interaction with Atg3 (co-immunoprecipitation)” value (Atg3) was “strongly interacted with endogenously and exogenously expressed Atg3, even in the presence of a 1M NaCl salt concentration”.
